Data from patent publication US20170325459A1, “BICYCLIC COMPOUNDS AS PEST CONTROL AGENTS” (Bayer CropScience Aktiengesellschaft, priority 2014, published 2017).

Key:
Myzus persicae = Myzus persicae spray test; assay type: in vivo; conditions: application rate 500 g/ha, Chinese cabbage leaf discs, after 6 days; for pest or weed control at 500 g/ha: Myzus persicae, foliar, 144 h, read-out: efficacy (aphids killed)
Protocol: Myzus persicae—Spray Test Solvent: 78 parts by weight of acetone • • 1.5 parts by weight of dimethylformamide Emulsifier: alkylaryl polyglycol ether To produce a suitable active ingredient formulation, 1 part by weight of active ingredient is dissolved using the specified parts by weight of solvent and made up with water containing an emulsifier concentration of 1000 ppm until the desired concentration is attained. To produce further test concentrations, the formulation is diluted with emulsifier-containing water. Discs of Chinese cabbage leaves (Brassica pekinensis) infested by all stages of the green peach aphid (Myzus persicae) are sprayed with an active ingredient formulation of the desired concentration. After 6 days, the efficacy in % is determined. 100% means that all the aphids have been killed and 0% means that none of the aphids have been killed.

Tetranychus urticae = Tetranychus urticae spray test, OP-resistant; assay type: in vivo; conditions: application rate 500 g/ha, bean leaf discs, after 6 days
Protocol: Tetranychus urticae—Spray Test, OP-Resistant
(§1) Solvent: 78.0 parts by weight of acetone • • 1.5 parts by weight of dimethylformamide
(§2) Emulsifier: alkylaryl polyglycol ether
(§3) To produce a suitable active ingredient formulation, 1 part by weight of active ingredient is dissolved using the specified parts by weight of solvent and made up with water containing an emulsifier concentration of 1000 ppm until the desired concentration is attained. To produce further test concentrations, the formulation is diluted with emulsifier-containing water.
Discs of bean leaves (Phaseolus vulgaris) infested with all stages of the greenhouse red spider mite (Tetranychus urticae) are sprayed with an active ingredient formulation of the desired concentration.
After 6 days, the efficacy in % is determined. 100% meant that all the spider mites have been killed and 0% means that no spider mites have been killed.

[1] = log P by HPLC (OECD Guideline 117), method [b] neutral range pH 7.8; assay type: physicochemical; conditions: for chromatographic logP: reversed-phase (RP) C18 HPLC column
Protocol: (§4) The log P values were determined in accordance with OECD Guideline 117 (EC Directive 92/69/EEC) by HPLC (high-performance liquid chromatography) using reversed-phase (RP) columns (C18), by the following methods: [a] The LC-MS determination in the acidic range is carried out at pH 2.7 with 0.1% aqueous formic acid and acetonitrile (contains 0.1% formic acid) as eluents; linear gradient from 10% acetonitrile to 95% acetonitrile. [b] LC-MS determination in the neutral range is effected at pH 7.8 with 0.001 molar aqueous ammonium hydrogencarbonate solution and acetonitrile as eluents; linear gradient from 10% acetonitrile to 95% acetonitrile. Calibration is effected using unbranched alkan-2-ones (having 3 to 16 carbon atoms) with known log P values (log P values determined on the basis of the retention times by linear interpolation between two successive alkanones).

[2] = log P by HPLC (OECD Guideline 117), method [a] acidic range pH 2.7; assay type: physicochemical; conditions: for chromatographic logP: reversed-phase (RP) C18 HPLC column
Protocol: as §4

Boophilus microplus = Boophilus microplus injection test; assay type: in vivo; conditions: application rate 20 μg/animal, injection into engorged adult female cattle ticks, assessed after 7 days
Protocol: Boophilus microplus—Injection Test Solvent: dimethyl sulphoxide To produce a suitable active ingredient formulation, 10 mg of active ingredient are mixed with 0.5 ml of solvent and the concentrate is diluted to the desired concentration with solvent. 1 μl of the active ingredient solution is injected into the abdomen of 5 engorged adult female cattle ticks (Boophilus microplus). The animals are transferred into dishes and kept in a climate-controlled room. Efficacy is assessed after 7 days by laying of fertile eggs. Eggs which are not visibly fertile are stored in a climate-controlled cabinet until the larvae hatch after about 42 days. An efficacy of 100% means that none of the ticks has laid any fertile eggs; 0% means that all the eggs are fertile.

Phaedon cochleariae = Phaedon cochleariae spray test; assay type: in vivo; conditions: application rate 500 g/ha, Chinese cabbage leaf discs, after 7 days
Protocol: Phaedon cochleariae—Spray Test
as §1, §2, §3
After 7 days, the efficacy in % is determined. 100% means that all the beetle larvae have been killed and 0% means that none of the beetle larvae have been killed.

| Structure (SMILES) | pest or weed control at 500 g/ha (Myzus persicae) [%] | chromatographic logP [1] | chromatographic logP [2] | also measured |
| --- | --- | --- | --- | --- |
| Cc1ccccc1-c1ccc2nc(-c3cccnc3)sc2c1 [compound 2] |  |  |  | efficacy (aphids killed) (Myzus persicae): 100%; efficacy (spider mites killed) (Tetranychus urticae): 90%; logP[b] [1]: 4.24; logP[a] [2]: 4.08 |
| FC(F)(F)c1ccn(-c2ccc3nc(-c4cccnc4)sc3c2)n1 [compound 28, 2-(Pyridin-3-yl)-6-[3-(trifluoromethyl)-1H-pyrazol-1-yl]-1,3-benzothiazole] | 100 | 3.46 |  | efficacy (laying of fertile eggs) (Boophilus microplus): 80% |
| Clc1ccc(-c2ccc3nc(-c4cccnc4)sc3c2)cc1 [compound 8] |  |  |  | efficacy (beetle larvae killed) (Phaedon cochleariae): 83%; logP[a] [2]: 4.43 |
| c1cncc(-c2nc3ccc(-n4ccnc4)cc3s2)c1 [compound 25, 6-(1H-Imidazol-1-yl)-2-(pyridin-3-yl)-1,3-benzothiazole] | 90 | 1.64 |  | efficacy (laying of fertile eggs) (Boophilus microplus): 80% |
| Cc1cc(C)c(-c2ccc3nc(-c4cccnc4)sc3c2)cc1SCC(F)(F)F [compound 9, 6-{2,4-Dimethyl-5-[(2,2,2-trifluoroethyl)sulphanyl]phenyl}-2-(pyridin-3-yl)-1,3-benzothiazole] | 90 | 5.24 | 5.22 |  |
| Clc1cccc(-c2ccc3nc(-c4cccnc4)sc3c2)c1 [compound 7] | 100 | 4.49 | 4.32 | efficacy (beetle larvae killed) (Phaedon cochleariae): 83% |
| CSc1nn(-c2ccc3nc(-c4cccnc4)sc3c2)c(=O)n1C [compound 51] |  |  |  | efficacy (aphids killed) (Myzus persicae): 100%; logP[b] [1]: 2.56; logP[a] [2]: 2.43 |
| Cc1cccc(-c2ccc3nc(-c4cccnc4)sc3c2)c1 [compound 3, 6-(3-Methylphenyl)-2-(pyridin-3-yl)-1,3-benzothiazole] | 90 | 4.41 | 4.27 |  |
| Cc1cc(F)c(-c2ccc3nc(-c4cccnc4)sc3c2)cc1SCC(F)(F)F [compound 11, 6-{2-Fluoro-4-methyl-5-[(2,2,2-trifluoroethyl)sulphanyl]phenyl}-2-(pyridin-3-yl)-1,3-benzothiazole] | 90 | 4.97 | 4.96 |  |
| Cc1cc(C)c([S+]([O-])CC(F)(F)F)cc1-c1ccc2nc(-c3cccnc3)sc2c1 (stereo not shown) [compound 10, 6-{2,4-Dimethyl-5-[(2,2,2-trifluoroethyl)sulphinyl]phenyl}-2-(pyridin-3-yl)-1,3-benzothiazole] | 90 | 3.4 | 3.45 |  |
| Cn1c(=O)cnn(-c2ccc3nc(-c4cccnc4)sc3c2)c1=O [compound 56, 4-Methyl-2-[2-(pyridin-3-yl)-1,3-benzothiazol-6-yl]-1,2,4-triazine-3,5(2H,4H)-dione] | 90 | 1.84 | 1.79 |  |
